The source made the active and inactive calls. No cut-off for these calls is given here.
Assays:
[1] = target: Crk-like protein (Mus musculus, UniProt P47941, T315I); assay: Inhibition of CrkL in mouse BaF3 cells harbouring BCR-ABL1 T315I mutant measured after 6 hrs by immunoblotting analysis; format: cell-based
[2] = system: BaF3; assay: cells; settings: Mus musculus, BaF3, 72 h
[3] = system: BaF3; assay: cells; settings: Mus musculus, BaF3, 72 h; remark: listed apart in the source
[4] = target: Tyrosine-protein kinase ABL1 (Homo sapiens, UniProt P00519, T315I); assay: Inhibition of human ABL1 T315I mutant (229 to 499 residues) using ABLtide as substrate preincubated for 2 hrs followed by ATP addition and measured every 2 mins for […] by spectrophotometric analysis
[5] = target: Tyrosine-protein kinase ABL1 (Homo sapiens, UniProt P00519); assay: Inhibition of human N-terminal his tagged native ABL1 (229 to 499 residues) expressed in Sf9 cells using ABLtide as substrate preincubated for 2 hrs followed by ATP addition and measured every 2 mins for […] by spectrophotometric analysis
[6] = system: BaF3; assay: cells; settings: Mus musculus, BaF3, 72 h; remark: listed apart in the source
[7] = system: BaF3; assay: cells; settings: Mus musculus, BaF3, 72 h; remark: listed apart in the source
[8] = system: BaF3; assay: cells; settings: Mus musculus, BaF3, 72 h; remark: listed apart in the source
[9] = system: BaF3; assay: cells; settings: Mus musculus, BaF3, 72 h; remark: listed apart in the source
[10] = system: BaF3; assay: cells; settings: Mus musculus, BaF3, 72 h; remark: listed apart in the source
[11] = system: BaF3; assay: cells; settings: Mus musculus, BaF3, 72 h; remark: listed apart in the source
[12] = system: BaF3; assay: cells; settings: Mus musculus, BaF3, 72 h; remark: listed apart in the source
[13] = system: BaF3; assay: cells; settings: Mus musculus, BaF3, 72 h; remark: listed apart in the source
[14] = system: BaF3; assay: cells; settings: Mus musculus, BaF3, 72 h; remark: listed apart in the source
[15] = system: BaF3; assay: cells; settings: Mus musculus, BaF3, 72 h; remark: listed apart in the source
[16] = system: BaF3; assay: cells; settings: Mus musculus, BaF3, 72 h; remark: listed apart in the source
[17] = system: BaF3; assay: cells; settings: Mus musculus, BaF3, 72 h; remark: listed apart in the source
[18] = system: BaF3; assay: cells; settings: Mus musculus, BaF3, 72 h; remark: listed apart in the source
[19] = system: BaF3; assay: cells; settings: Mus musculus, BaF3, 72 h; remark: listed apart in the source
[20] = system: BaF3; assay: Antitumor activity against mouse BaF3 cells harbouring BCR-ABL1 T315I mutant xenografted in Balb/c mouse model assessed as prolongation of animal survival at 100 mg/kg, po administered twice daily for 21 days; format: functional, organism-based; settings: time 21.0 day

Sequence of Crk-like protein (P47941 whole entry, looked up, stated change not applied): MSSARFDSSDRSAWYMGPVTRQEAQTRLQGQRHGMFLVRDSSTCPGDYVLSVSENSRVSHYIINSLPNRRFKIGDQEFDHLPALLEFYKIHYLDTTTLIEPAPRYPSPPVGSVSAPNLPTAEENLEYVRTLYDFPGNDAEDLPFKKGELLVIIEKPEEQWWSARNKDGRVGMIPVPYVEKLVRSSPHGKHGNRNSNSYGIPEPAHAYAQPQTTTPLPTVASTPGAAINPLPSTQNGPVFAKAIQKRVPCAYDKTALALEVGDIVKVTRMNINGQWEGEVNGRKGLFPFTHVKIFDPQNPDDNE

Cc1cn(-c2cc(NC(=O)c3ccc(C)c(Nc4nccc(-c5cccnc5)n4)c3)cc(C(F)(F)F)c2)cn1 [NILOTINIB]
IC50 [1]: > 5000 nM | IC50 [2]: 95 nM | IC50 [3]: 9500 nM

CNC(=O)c1cc(Oc2ccc(NC(=O)Nc3cc(C(C)(C)C)nn3-c3ccc4c(c3)CCNC4)c(F)c2)ccn1
IC50 [4]: 17 nM | IC50 [5]: 9 nM

CC(C)(C)c1cc(NC(=O)Nc2cccc(Cl)c2Cl)n(-c2ccc3c(c2)C[C@@H](C(=O)O)NC3)n1
IC50 [4]: 773 nM | IC50 [5]: 57 nM

Cc1nc(Nc2ncc(C(=O)Nc3c(C)cccc3Cl)s2)cc(N2CCN(CCO)CC2)n1 [DASATINIB ANHYDROUS]
IC50 [6]: 8 nM | IC50 [7]: 2.7 nM | IC50 [8]: 1.2 nM | IC50 [9]: 0.4 nM | IC50 [10]: 2.8 nM | IC50 [11]: 0.3 nM | IC50 [12]: 8 nM | IC50 [1]: > 5000 nM | IC50 [13]: 2 nM | IC50 [2]: 2 nM | IC50 [14]: 2.3 nM | IC50 [15]: 1 nM | IC50 [3]: 3800 nM | IC50 [16]: 65 nM | IC50 [17]: 7.3 nM | IC50 [18]: 1.1 nM

Cc1cc(Nc2cc(N3CCN(C)CC3)nc(Sc3ccc(NC(=O)C4CC4)cc3)n2)n[nH]1 [TOZASERTIB]
IC50 [6]: 200 nM | IC50 [7]: 130 nM | IC50 [8]: 160 nM | IC50 [9]: 104 nM | IC50 [10]: 180 nM | IC50 [11]: 130 nM | IC50 [12]: 84 nM | IC50 [13]: 80 nM | IC50 [19]: 74 nM | IC50 [2]: 190 nM | IC50 [14]: 84 nM | IC50 [15]: 190 nM | IC50 [16]: 88 nM | IC50 [17]: 110 nM | IC50 [18]: 65 nM

CC(C)(C)c1cc(NC(=O)Nc2cccc(Cl)c2Cl)n(-c2ccc3ncccc3c2)n1
IC50 [4]: 711 nM

CNC(=O)c1cc(Oc2ccc(NC(=O)Nc3cc(C(C)(C)C)nn3C)c(F)c2)ccn1
IC50 [4]: 80 nM | IC50 [5]: 88 nM

Cc1ccc(NC(=O)c2ccc(CN3CCN(C)CC3)cc2)cc1Nc1nccc(-c2cccnc2)n1 [IMATINIB]
Activity [20]: inactive
